Assay results published in patent publication US10729666B2, “Use of GABAA receptor reinforcing agent in preparation of sedative and anesthetic medicament” (Sichuan Haisco Pharmaceutical Co., Ltd., priority 2014, dated 2020).

Experiments:
ICR mice = assay: Righting reflex experiment on mice; details: for HD7 / Anesthesia induction time / Anesthesia maintenance time / SI / TI: intravenous; for HD7: dose required to cause a 7-min anesthesia; for Anesthesia induction time: end of administration until loss of righting reflex; for Anesthesia maintenance time: loss until recovery of righting reflex; for ED50: Mus musculus, iv; for SI: safety index, LD5/ED95; for TI: therapeutic index, LD50/ED50
Protocol: (§1) LD5 (5% lethal dose): dose required to cause 5% of animals to die in a test.
(§2) If a normal animal was able to immediately body-right after being pushed over or made lying on its back, such a reflex was determined as the righting reflex. Otherwise, loss of the righting reflex and the time of loss were recorded, and a reflex recovery time was recorded when the animal restored the righting reflex. The period from finishing of drug administration until loss of the righting reflex was recorded as the anesthesia induction time, and the period from loss of the righting reflex until recovery of the righting reflex was recorded as the anesthesia maintenance time.
(§3) TI (therapeutic index, i.e. LD50/ED50), SI (safety index, i.e. LD5/ED95).
(§4) MTD (maximum tolerated dose): the maximum dose able to cause 100% of animals to loss the righting index without death.
(§5) Indicators such as median effective dose (ED50), median lethal dose (LD50), therapeutic index (TI, i.e. LD50/ED50), safety index (SI, i.e. LD5/ED95), anesthesia induction time, anesthesia maintenance time, and maximum tolerated dose (MTD) were used to evaluate the effect and safety of anesthesia. […] After adapting to the laboratory environment, laboratory animals were fasted for 12 hours. On the next day, administration was carried out at 10 mg/kg body weight. Upon intravenous injection, the time of loss of the righting reflex was recorded. The period from finishing of drug administration until loss of the righting reflex was recorded as the anesthesia induction time, and the period from loss of the righting reflex until recovery of the righting reflex was recorded as the anesthesia maintenance time. The anesthesia induction time and the anesthesia maintenance time were used to indicate how strong an anesthetic effect was. Meanwhile, the dose required to cause a 7-min anesthesia (HD7) was measured and used to evaluate relative efficacy.

[1] = Righting reflex experiment on mice; details: both, ICR, mouse, in vivo, iv
Protocol: as §1, §2, §3, §4, §5

healthy male volunteers = assay: Preliminary pharmacodynamic studies with healthy humans; type: in vivo; details: single intravenous injection of the emulsion injection
Protocol: The subjects were fasted during the night for 6 hours or longer. The Emulsion injection of Compound 7 was administered by single intravenous injection. Groups 1 and 2 were administered by manual push injection for 2 to 3 seconds, and Groups 3-8 were administered by constant-rate pump injection for more than 1 min.
Primary indices include RASS and the tolerance to pain during injection (Verbal rating scale (VRS) was used to allow the researchers to know the pain degree of subjects); and secondary indices include cardiovascular indices and EEG (electroencephalogram) and BIS (Bispectral index) associated with the cognitive function recovery evaluation (QoR-40).

SMILES	HD7 (ICR mice; ICR mice)	Anesthesia induction time (ICR mice; ICR mice)	Anesthesia maintenance time (ICR mice; ICR mice)	ED50 (ICR mice)	SI (ICR mice; ICR mice)	TI (ICR mice; ICR mice)	MTD [1]	LD50 (ICR mice; ICR mice, intravenous injection, solvent 10% DMSO, 15% solutol HS15, 75% saline)	LD50 [1]	dose with which subjects started showing light anesthesia (healthy male volunteers)
C[C@H](c1cccc([C@H](C)C2CC2)c1O)C1CC1 [Compound 9, 2-[(1S)-1-cyclopropylethyl]-6-[(1R)-1-cyclopropylethyl]phenol]	2.5 mg/kg	–	–	–	–	–	–	–	–	–
CC(C)c1cccc(C(C)C2CC2)c1O (racemic) [Compound 1, 2-(1-cyclopropylethyl)-6-isopropylphenol]	6.0 mg/kg	<15.0 s	660.4 s	3.7 mg/kg	1.7	6.1	10 mg/kg	–	–	–
C[C@@H](c1cccc([C@H](C)C2CC2)c1O)C1CC1 [Compound 10, 2,6-bis[(1R)-1-cyclopropylethyl]phenol]	–	–	754.4 s	1.5 mg/kg	3.8	4.1	5 mg/kg	6.3 mg/kg	–	–
CC(C)c1cccc([C@@H](C)C2CC2)c1O [Compound 8, 2-[(1S)-1-cyclopropylethyl]-6-isopropyl-phenol]	–	<15.0 s	1031.6 s	5.8 mg/kg	3.5	7.5	20 mg/kg	–	43.6 mg/kg	–
CC(C)c1cccc([C@H](C)C2CC2)c1O [Compound 7, 2-[(1R)-1-cyclopropylethyl]-6-isopropyl-phenol]	–	–	–	–	–	–	–	–	–	0.128 mg/kg
